Assay results from patent US20090203577A1 (EXELIXIS, INC., priority 2005, published 2009).

Molecular target: T1, human farnesoid X receptor (Homo sapiens, UniProt Q96RI1)
T1 construct: CMX-farnesoid X receptor (full length human farnesoid X receptor); expressed in transfected cells; host or cells: CV-1 African Green Monkey Kidney cells
T1 sequence (Q96RI1 1-472 isoform Q96RI1-2): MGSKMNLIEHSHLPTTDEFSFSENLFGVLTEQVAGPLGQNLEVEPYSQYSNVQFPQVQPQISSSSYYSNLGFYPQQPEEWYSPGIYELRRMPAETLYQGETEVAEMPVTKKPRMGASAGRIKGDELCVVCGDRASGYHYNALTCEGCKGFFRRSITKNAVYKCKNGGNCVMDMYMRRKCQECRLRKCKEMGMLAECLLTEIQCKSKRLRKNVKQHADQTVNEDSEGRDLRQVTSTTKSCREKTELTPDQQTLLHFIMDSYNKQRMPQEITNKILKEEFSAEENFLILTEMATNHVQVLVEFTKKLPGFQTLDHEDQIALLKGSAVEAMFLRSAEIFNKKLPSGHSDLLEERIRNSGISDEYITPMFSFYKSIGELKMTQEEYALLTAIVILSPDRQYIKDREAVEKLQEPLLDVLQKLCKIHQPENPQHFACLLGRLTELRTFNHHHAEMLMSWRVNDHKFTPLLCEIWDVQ
T1 sequence (P19793 1-462 partner): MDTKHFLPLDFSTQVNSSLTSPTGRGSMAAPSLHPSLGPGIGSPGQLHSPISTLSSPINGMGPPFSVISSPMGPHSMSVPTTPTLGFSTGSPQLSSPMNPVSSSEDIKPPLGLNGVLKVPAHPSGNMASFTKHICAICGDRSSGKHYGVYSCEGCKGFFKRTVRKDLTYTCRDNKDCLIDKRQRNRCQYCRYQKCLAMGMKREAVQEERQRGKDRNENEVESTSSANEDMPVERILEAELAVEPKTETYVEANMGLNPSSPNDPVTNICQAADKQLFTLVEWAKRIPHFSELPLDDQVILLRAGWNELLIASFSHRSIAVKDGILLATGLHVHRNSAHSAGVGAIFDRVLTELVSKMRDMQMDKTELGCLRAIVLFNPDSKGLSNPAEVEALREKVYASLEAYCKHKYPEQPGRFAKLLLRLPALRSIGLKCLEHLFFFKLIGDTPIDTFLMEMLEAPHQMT
Assay: FXR in vitro assays (farnesoid X receptor/ECREx7 co-transfection assay, TR-FRET assay), Table I
Assay type: cell-based
Settings: for EC50: agonist activity, one or more of the in vitro assays, read-out: EC50; for Emax: read-out: % Efficacy
Description: The basic co-transfection protocol for measuring the farnesoid X receptor activity is as follows. CV-1 African Green Monkey Kidney cells were plated 24 hours before transfection to achieve approximately 70-80 percent confluency. […] The assay was allowed to continue for an additional 18-20 hours, after which the cells were lysed, with lysis buffer (1% triton X 100, 10% glycerol, 5 mM Dithiothreitol, 1 mM EGTA, 25 mM Tricine, pH 7.8) and the luciferase activity measured in the presence of Luciferase assay buffer (0.73 mM ATP, 22.3 mm Tricine, 0.11 mM EGTA, 0.55 mM Luciferin, 0.15 mM Coenzyme A, 0.5 mM HEPES, 10 mM Magnesium sulphatc) on a standard luminometer plate reader (PE Biosystems, NorthStar Reader), using recommended operating instructions and conditions.
The dose response curves are generated from an 8 point curve with concentrations differing by ½ LOG units. Each point represents the average of 4 wells of data from a 384 well plate. A curve for the data is generated by using the equation:
Y=Bottom+(Top−Bottom)/(1+10̂((Log EC50−X)*HillSlope))
The EC50/IC50 is therefore defined as the concentration at which an agonist or antagonist elicits a response that is half way between the Top (maximum) and Bottom (baseline) values. The EC50/IC50 values represented are the averages of at least 3 independent experiments.

SMILES | EC50 [nM] | Emax [%]
CC(C)OC(=O)C1=CN(C(=O)C2CCCCC2)CC(C)(C)c2c1[nH]c1ccccc21 [Example 1, 1-Methylethyl 1,1-Dimethyl-1,2,3,6-Tetrahydroazepino [4,5-b]Indole-5-CarboxylateE] | 10 to 100 | > 100
CC(C)OC(=O)C1=CN(C(=O)C2CCCCCC2)CC(C)(C)c2c1[nH]c1ccccc21 [Example 12, 1-Methylethyl 3-[(3,4-Difluorophenyl)Carbonyl]-8-[(f{[2-(Dimethylamino)Ethyl]amino}Carbonyl)Oxy]-1,1-Dimethyl-1,2,3,6-tetrahydroazepino[4,5-b]Indole-5-Carboxylate] | 10 to 100 | > 100
CC(C)OC(=O)C1=CN(C(=O)CCCN(C)C)CC(C)(C)c2c1[nH]c1ccccc21 [Example 20] | 1000 to 10000 | –
CC(=O)C1=CNCC(C)(C)c2c1[nH]c1ccccc21 [Example 21] | 1000 to 10000 | –
CC(C)OC(=O)C1=CN(C(=O)NCCN2CCOCC2)CC(C)(C)c2c1[nH]c1ccccc21 [Example 22, 1-methylethyl 1,1-dimethyl-3-{[(2-morpholin-4-ylethyl)amino]carbonyl}-1,2,3,6-tetrahydroazepino[4,5-b]indole-5-carboxylate] | 1000 to 10000 | –
CC(C)OC(=O)C1=CN(C(=O)C23C[C@H]4C[C@@H](C2)C[C@@H](C3)C4)CC(C)(C)c2c1[nH]c1ccccc21 [Example 24, 1-methylethyl 1,1-dimethyl-3-[(3s,5s,7s)-tricyclo[3.3.1.1~3,7~]dec-1-ylcarbonyl]-1,2,3,6-tetrahydroazepino [4,5-b]indole-5-carboxylate] | 10 to 100 | > 100
CCN(CC)CCN(CC)C(=O)N1C=C(C(=O)OC(C)C)c2[nH]c3ccccc3c2C(C)(C)C1 [Example 27, 1-methylethyl 3-({[2-(diethylamino)ethyl](ethyl)amino}carbonyl)-1,1-dimethyl-1,2,3,6-tetrahydro azepino [4,5-b]indole-5-carboxylate] | 1000 to 10000 | –
CC(C)OC(=O)C1=CN(C(=O)N2CCN(C)CC2)CC(C)(C)c2c1[nH]c1ccc(F)cc21 [Example 32, 1-methylethyl 9-fluoro-1,1-dimethyl-3-[(4-methylpiperazin-1-yl)carbonyl]-1,2,3,6-tetrahydroazepino[4,5-b]indole-5-carboxylate] | 100 to 1000 | > 100
CC(C)OC(=O)C1=CN(C(=O)N2CCCCCC2)CC(C)(C)c2c1[nH]c1ccccc21 [Example 40, 1-methylethyl 3-(azepan-1-ylcarbonyl)-1,1-dimethyl-1,2,3,6-tetrahydroazepino [4,5-b]indole-5-carboxylate] | 1 to 10 | > 100
CC(C)OC(=O)C1=CN(C(=O)NC2CCCC2)CC(C)(C)c2c1[nH]c1ccccc21 [Example 44, 1-methylethyl 3-[(cyclopentylamino)carbonyl]-1,1-dimethyl-1,2,3,6-tetrahydroazepino[4,5-b]indole-5-carboxylate] | 10 to 100 | > 100
CC(C)OC(=O)C1=CN(C(=O)NC2CCCCCC2)CC(C)(C)c2c1[nH]c1ccccc21 [Example 46, 1-methylethyl 3-[(cycloheptylamino)carbonyl]-1,1-dimethyl-1,2,3,6-tetrahydroazepino[4,5-b]indole-5-carboxylate] | 10 to 100 | > 100
CC(C)OC(=O)C1=CN(C(=O)NCc2ccccc2)CC(C)(C)c2c1[nH]c1ccccc21 [Example 49, 1-methylethyl 1,1-dimethyl-3-{[(phenylmethyl)amino]carbonyl}-1,2,3,6-tetrahydroazepino[4,5-b]indole-5-carboxylate] | 1000 to 10000 | 80 to 100
CCN(CC)C(=O)N1C=C(C(=O)OC(C)C)c2[nH]c3ccccc3c2C(C)(C)C1 [Example 52, 1-methylethyl 3-[(diethylamino)carbonyl]-1,1-dimethyl-1,2,3,6-tetrahydroazepino[4,5-b]indole-5-carboxylate] | 10 to 100 | > 100
CC(C)OC(=O)C1=CN(C(=O)N2CCCC(COCCCN(C)C)C2)CC(C)(C)c2c1[nH]c1ccccc21 (stereo not shown) [Example 55, 1-methylethyl 3-{[3-({[3-(dimethylamino)propyl]oxy}methyl)piperidin-1-yl]carbonyl}-1,1-dimethyl-1,2,3,6-tetrahydroazepino[4,5-b]indole-5-carboxylate] | 1000 to 10000 | –
CC(C)OC(=O)C1=CN(C(=O)N2CCCN(Cc3ccccc3)CC2)CC(C)(C)c2c1[nH]c1ccccc21 [Example 59, 1-methylethyl 1,1-dimethyl-3-{[4-(phenylmethyl)-1,4-diazepan-1-yl]carbonyl}-1,2,3,6-tetrahydroazepino [4,5-b]indole-5-carboxylate] | 10 to 100 | > 100
CC(C)OC(=O)C1=CN(C(=O)c2c(F)ccc(F)c2Cl)CC(C)(C)c2c1[nH]c1ccccc21 [Example 61, 1-methylethyl 3-[(2-chloro-3,6-difluorophenyl)carbonyl]-1,1-dimethyl-1,2,3,6-tetrahydroazepino[4,5-b]indole-5-carboxylate] | 10 to 100 | > 100
CC(C)OC(=O)C1=CN(C(=O)c2ccccc2)CC(C)(C)c2c1[nH]c1ccccc21 [Example 62, 1-methylethyl 1,1-dimethyl-3-(phenylcarbonyl)-1,2,3,6-tetrahydroazepino[4,5-b]indole-5-carboxylate] | 1 to 10 | > 100
CC(C)OC(=O)C1=CN(C(=O)c2ccccc2F)CC(C)(C)c2c1[nH]c1ccccc21 [Example 63, 1-methylethyl 3-[(2-fluorophenyl)carbonyl]-1,1-dimethyl-1,2,3,6-tetrahydroazepino[4,5-b]indole-5-carboxylate] | 10 to 100 | > 100
CC(C)OC(=O)C1=CN(C(=O)c2ccccc2Cl)CC(C)(C)c2c1[nH]c1ccccc21 [Example 66, 1-methylethyl 3-[(2-chlorophenyl)carbonyl]-1,1-dimethyl-1,2,3,6-tetrahydroazepino[4,5-b]indole-5-carboxylate] | 1 to 10 | > 100
Cc1ccccc1C(=O)N1C=C(C(=O)OC(C)C)c2[nH]c3ccccc3c2C(C)(C)C1 [Example 68, 1-methylethyl 1,1-dimethyl-3-[(2-methylphenyl)carbonyl]-1,2,3,6-tetrahydroazepino[4,5-b]indole-5-carboxylate] | 10 to 100 | > 100
COc1ccccc1C(=O)N1C=C(C(=O)OC(C)C)c2[nH]c3ccccc3c2C(C)(C)C1 [Example 69, 1-methylethyl 1,1-dimethyl-3-{[2-(methyloxy)phenyl]carbonyl}-1,2,3,6-tetrahydroazepino[4,5-b]indole-5-carboxylate] | 10 to 100 | > 100
CC(C)OC(=O)C1=CN(C(=O)c2ccc(F)cc2F)CC(C)(C)c2c1[nH]c1ccccc21 [Example 73, 1-methylethyl 3-[(2,4-difluorophenyl)carbonyl]-1,1-dimethyl-1,2,3,6-tetrahydroazepino[4,5-b]indole-5-carboxylate] | 1 to 10 | > 100
CC(C)OC(=O)C1=CN(C(=O)c2cccc(F)c2F)CC(C)(C)c2c1[nH]c1ccccc21 [Example 74, 1-methylethyl 3-[(2,3-difluorophenyl)carbonyl]-1,1-dimethyl-1,2,3,6-tetrahydroazepino[4,5-b]indole-5-carboxylate] | 1 to 10 | > 100
CC(C)OC(=O)C1=CN(C(=O)c2c(F)cccc2F)CC(C)(C)c2c1[nH]c1ccccc21 [Example 75, 1-methylethyl 3-[(2,6-difluorophenyl)carbonyl]-1,1-dimethyl-1,2,3,6-tetrahydroazepino[4,5-b]indole-5-carboxylate] | 1 to 10 | > 100
